The text below walks through data of patent publication US20130225543A1, “SPECIFIC REGULATION OF CYTOKINE LEVELS BY HDAC6 INHIBITORS” (Acetylon Pharmaceuticals, priority 2010, published 2013).

Assay [1] concerns collagen induced arthritis. The assay is described as follows: Collagen induced arthritis in mice. It counts as in vivo, male DBA/1OlaHsd mice. Particulars: 30 mg/kg twice daily injection from Day 18.
Experimental: To test these two HDAC6 inhibitors in an animal model of a chronic inflammatory disease a mouse collagen induced arthritis in a semi-therapeutic mode is used. In this study male DBA/1OlaHsd mice, 6 weeks old, are anesthetized with Isoflurane and given 150 μL Type II collagen in Freund's complete adjuvant on Day 0 and Day 21. Treatment with compound is initiated on Day 18. The mice in the treatment groups are injected twice daily with 30 mg/kg of compound in 10% DMSO/10% Solutol HS15/80% 0.9% saline. […] Inflammation in the joints is measured daily and a disease score is calculated based on paw thickness.
The target of the next assay is T1, HDAC4 (Homo sapiens, UniProt P56524).
T1 construct: purchased BPS Biosciencies (San Diego, Calif.)
Nature of the assay: Kinetic HDAC enzyme inhibition assay, HDAC4. Particulars: recombinant HDAC. It counts as biochemical.

A further assay has as its target T2, HDAC9 (Homo sapiens, UniProt Q9UKV0).
T2 construct: purchased BPS Biosciencies (San Diego, Calif.)
Nature of the assay: Kinetic HDAC enzyme inhibition assay, HDAC9. The class given is biochemical. Particulars: recombinant HDAC.

The next assay deals with T3, HDAC7 (Homo sapiens, UniProt Q8WUI4).
T3 construct: purchased BPS Biosciencies (San Diego, Calif.)
T3 sequence (Q8WUI4 1-952): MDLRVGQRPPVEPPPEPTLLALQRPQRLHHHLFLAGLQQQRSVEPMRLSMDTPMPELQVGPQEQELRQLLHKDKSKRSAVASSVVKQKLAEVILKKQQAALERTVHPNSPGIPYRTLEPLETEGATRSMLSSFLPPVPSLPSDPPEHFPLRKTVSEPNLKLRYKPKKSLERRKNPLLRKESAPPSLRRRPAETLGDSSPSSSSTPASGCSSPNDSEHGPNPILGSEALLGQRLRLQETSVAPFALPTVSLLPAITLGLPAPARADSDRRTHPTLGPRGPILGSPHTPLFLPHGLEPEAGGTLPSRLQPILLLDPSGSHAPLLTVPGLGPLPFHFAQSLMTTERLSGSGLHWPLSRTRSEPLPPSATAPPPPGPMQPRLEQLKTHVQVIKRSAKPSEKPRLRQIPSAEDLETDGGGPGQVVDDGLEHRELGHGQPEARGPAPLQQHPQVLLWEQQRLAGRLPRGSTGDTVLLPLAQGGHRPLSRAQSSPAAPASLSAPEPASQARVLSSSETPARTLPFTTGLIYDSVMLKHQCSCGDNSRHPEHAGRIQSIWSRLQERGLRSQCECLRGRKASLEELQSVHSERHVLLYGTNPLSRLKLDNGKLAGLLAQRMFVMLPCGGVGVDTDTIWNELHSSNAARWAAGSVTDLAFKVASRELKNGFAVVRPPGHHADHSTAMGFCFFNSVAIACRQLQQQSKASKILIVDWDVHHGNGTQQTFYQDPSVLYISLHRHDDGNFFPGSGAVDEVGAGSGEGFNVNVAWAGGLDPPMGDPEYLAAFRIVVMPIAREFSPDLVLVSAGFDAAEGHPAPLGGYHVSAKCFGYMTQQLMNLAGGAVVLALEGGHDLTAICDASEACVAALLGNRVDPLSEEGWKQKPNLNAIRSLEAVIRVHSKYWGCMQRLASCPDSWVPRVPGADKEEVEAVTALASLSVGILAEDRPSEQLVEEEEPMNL
Nature of the assay: Kinetic HDAC enzyme inhibition assay, HDAC7. The class given is biochemical. Particulars: recombinant HDAC.

The next assay concerns human PBMCs. The assay is described as follows: LPS induced cytokine release from PBMCs. It counts as cell-based. Particulars: 1 μM compound, 0.5 ng/ml LPS overnight.
For a further assay, the target named is T4, HDAC1 (Homo sapiens, UniProt Q13547).
T4 construct: purchased BPS Biosciencies (San Diego, Calif.)
The assay is described as follows: Kinetic HDAC enzyme inhibition assay, HDAC1. Particulars: recombinant HDAC. The class given is biochemical.

Another assay deals with T5, HDAC5 (Homo sapiens, UniProt Q9UQL6).
T5 construct: purchased BPS Biosciencies (San Diego, Calif.)
Nature of the assay: Kinetic HDAC enzyme inhibition assay, HDAC5. Particulars: recombinant HDAC. It counts as biochemical.

In the next assay the target is T6, HDAC2 (Homo sapiens, UniProt Q92769).
T6 construct: purchased BPS Biosciencies (San Diego, Calif.)
Nature of the assay: Kinetic HDAC enzyme inhibition assay, HDAC2. The class given is biochemical. Particulars: recombinant HDAC.

Assay [2] concerns RAW264.7 mouse macrophages. The assay is described as follows: TNFα protein and mRNA in LPS stimulated RAW264.7 macrophages. It counts as cell-based. Particulars: 10 ng/ml LPS, two hours; for TNFα protein level in supernatant: ELISA; for TNFα mRNA level: RT-PCR relative to GAPDH. The procedure: The cells are stimulated with 10 ng/ml LPS and incubated for two hours. The cell supernatants are collected and assayed for the level of TNFα by ELISA. The cells are harvested and mRNA purified using an RNEasy kit from Qiagen. The level of TNFα mRNA is determined by RT-PCR using a StepOne Plus real time PCR machine. The change in the relative level of TNFα mRNA as compared to the level of GAPDH mRNA is plotted, along with the concentration of TNFα protein in the supernatant (see FIG. 4).

The test system of a further assay is IL-1β. Particulars: Carta et al. 2006; cited from earlier work.
A further assay has as its system Class I HDACs and HDAC6. Particulars: Bradner et al. 2010; cited from earlier work.
For assay [3], the system named is proinflammatory cytokines. Particulars: Leoni et al. 2002, 2005; cited from earlier work.

T4 sequence (Q13547 whole entry): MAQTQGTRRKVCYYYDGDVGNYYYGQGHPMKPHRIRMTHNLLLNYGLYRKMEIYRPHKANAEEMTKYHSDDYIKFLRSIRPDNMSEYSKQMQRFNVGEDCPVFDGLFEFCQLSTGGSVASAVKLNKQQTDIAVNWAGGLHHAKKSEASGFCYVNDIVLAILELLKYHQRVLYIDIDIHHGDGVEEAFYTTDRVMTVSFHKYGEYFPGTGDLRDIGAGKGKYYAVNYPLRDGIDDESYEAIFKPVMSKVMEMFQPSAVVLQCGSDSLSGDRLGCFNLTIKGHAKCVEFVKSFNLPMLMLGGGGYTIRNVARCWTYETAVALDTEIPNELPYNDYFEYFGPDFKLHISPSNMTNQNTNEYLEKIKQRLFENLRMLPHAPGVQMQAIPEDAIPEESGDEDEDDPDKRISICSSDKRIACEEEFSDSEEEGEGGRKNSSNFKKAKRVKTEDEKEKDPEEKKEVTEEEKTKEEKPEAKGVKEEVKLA
T5 sequence (Q9UQL6 whole entry): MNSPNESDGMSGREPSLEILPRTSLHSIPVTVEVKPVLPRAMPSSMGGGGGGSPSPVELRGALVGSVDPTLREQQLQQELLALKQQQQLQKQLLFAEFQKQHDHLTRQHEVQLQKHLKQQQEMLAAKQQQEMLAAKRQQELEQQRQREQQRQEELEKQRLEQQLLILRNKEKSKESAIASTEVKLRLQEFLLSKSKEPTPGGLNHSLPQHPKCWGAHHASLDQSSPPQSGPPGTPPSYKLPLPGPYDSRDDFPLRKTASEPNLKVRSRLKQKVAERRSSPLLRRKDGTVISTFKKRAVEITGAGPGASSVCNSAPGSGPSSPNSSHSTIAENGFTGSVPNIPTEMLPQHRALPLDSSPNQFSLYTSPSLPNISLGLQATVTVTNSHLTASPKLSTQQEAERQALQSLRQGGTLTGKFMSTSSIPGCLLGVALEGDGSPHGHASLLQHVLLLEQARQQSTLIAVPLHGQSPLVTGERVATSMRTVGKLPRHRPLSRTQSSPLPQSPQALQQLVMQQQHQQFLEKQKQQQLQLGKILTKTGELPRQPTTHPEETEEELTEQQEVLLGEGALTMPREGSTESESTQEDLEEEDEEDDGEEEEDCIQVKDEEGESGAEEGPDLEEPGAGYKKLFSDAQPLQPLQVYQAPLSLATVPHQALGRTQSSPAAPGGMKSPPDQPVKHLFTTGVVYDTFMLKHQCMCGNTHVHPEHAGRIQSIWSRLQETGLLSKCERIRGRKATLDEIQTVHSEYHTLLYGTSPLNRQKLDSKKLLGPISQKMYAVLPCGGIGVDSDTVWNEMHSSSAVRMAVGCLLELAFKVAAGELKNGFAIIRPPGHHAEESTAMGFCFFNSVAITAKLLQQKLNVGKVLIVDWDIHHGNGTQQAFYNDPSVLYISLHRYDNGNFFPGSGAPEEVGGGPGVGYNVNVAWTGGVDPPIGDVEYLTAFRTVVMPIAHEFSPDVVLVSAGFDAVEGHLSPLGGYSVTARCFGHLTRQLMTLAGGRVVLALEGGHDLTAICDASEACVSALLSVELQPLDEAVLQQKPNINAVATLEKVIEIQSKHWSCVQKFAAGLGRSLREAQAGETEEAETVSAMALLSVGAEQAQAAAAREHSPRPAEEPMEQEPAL
T1 sequence (P56524 whole entry): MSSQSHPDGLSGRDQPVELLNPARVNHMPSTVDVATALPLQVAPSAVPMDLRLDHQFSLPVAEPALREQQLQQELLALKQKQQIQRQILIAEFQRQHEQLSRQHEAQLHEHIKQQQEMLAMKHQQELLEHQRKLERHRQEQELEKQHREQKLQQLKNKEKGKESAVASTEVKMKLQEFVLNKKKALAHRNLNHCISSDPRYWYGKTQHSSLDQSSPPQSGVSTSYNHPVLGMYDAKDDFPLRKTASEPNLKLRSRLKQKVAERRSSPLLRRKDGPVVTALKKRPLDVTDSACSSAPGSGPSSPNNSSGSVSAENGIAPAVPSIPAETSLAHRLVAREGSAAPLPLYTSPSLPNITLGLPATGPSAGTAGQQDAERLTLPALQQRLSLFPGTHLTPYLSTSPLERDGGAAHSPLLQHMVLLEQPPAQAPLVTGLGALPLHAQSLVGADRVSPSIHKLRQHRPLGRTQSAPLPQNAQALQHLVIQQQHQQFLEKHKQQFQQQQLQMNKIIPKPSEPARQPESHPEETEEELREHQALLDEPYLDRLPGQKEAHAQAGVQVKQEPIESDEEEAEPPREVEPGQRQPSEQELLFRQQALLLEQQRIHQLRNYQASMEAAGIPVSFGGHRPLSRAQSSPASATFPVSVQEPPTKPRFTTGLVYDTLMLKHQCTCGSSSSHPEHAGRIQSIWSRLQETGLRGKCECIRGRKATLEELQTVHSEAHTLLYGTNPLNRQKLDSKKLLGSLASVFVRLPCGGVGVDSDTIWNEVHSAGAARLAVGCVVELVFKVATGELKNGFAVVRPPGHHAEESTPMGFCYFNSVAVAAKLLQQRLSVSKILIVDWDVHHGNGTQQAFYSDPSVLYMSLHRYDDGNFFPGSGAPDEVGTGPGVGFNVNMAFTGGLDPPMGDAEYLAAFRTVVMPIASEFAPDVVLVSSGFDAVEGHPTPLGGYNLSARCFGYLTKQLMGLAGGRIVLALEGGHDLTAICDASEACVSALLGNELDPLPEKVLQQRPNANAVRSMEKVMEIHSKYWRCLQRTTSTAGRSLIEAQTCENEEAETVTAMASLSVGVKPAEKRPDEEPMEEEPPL
T6 sequence (Q92769 whole entry): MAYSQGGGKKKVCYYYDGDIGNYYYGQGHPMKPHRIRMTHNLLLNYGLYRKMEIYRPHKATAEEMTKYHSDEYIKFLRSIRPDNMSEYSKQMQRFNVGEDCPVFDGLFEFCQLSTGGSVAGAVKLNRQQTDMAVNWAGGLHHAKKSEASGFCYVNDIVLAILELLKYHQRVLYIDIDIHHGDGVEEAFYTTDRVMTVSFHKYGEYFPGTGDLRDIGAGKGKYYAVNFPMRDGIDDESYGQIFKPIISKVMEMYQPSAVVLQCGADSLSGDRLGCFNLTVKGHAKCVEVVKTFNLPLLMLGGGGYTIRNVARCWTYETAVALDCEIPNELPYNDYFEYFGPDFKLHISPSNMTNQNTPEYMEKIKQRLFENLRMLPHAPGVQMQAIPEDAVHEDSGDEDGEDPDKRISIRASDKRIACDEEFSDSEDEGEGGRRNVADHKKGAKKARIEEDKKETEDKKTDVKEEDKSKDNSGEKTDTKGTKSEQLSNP
T2 sequence (Q9UKV0 whole entry): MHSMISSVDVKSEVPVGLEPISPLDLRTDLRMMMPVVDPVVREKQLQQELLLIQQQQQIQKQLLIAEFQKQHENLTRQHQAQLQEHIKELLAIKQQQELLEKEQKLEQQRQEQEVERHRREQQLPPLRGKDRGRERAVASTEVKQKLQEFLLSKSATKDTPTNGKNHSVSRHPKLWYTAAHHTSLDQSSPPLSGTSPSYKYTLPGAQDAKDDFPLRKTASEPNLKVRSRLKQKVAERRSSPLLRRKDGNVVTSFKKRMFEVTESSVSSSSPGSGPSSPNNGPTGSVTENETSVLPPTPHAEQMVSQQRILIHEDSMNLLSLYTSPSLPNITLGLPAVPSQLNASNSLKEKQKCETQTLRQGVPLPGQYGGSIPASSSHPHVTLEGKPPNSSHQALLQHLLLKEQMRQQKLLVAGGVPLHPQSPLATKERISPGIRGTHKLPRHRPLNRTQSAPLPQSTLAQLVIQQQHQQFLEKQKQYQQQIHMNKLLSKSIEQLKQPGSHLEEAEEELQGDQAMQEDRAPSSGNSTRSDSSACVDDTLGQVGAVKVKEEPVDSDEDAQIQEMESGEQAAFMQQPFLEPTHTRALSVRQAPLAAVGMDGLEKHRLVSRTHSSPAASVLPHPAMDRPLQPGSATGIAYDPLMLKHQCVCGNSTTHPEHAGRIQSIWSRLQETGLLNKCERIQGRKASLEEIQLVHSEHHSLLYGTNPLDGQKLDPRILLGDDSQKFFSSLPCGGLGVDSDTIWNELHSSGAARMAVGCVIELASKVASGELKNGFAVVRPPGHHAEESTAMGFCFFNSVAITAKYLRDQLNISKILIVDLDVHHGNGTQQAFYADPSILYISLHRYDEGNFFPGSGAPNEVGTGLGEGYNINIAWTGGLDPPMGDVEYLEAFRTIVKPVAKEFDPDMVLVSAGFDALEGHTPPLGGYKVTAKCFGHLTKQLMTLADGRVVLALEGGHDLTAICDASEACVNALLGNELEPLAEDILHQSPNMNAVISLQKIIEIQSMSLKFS
Experimental for HDAC1: (§1) HDAC inhibitory activity of the compounds described in Table 1 is measured using a kinetic HDAC assay. Recombinant HDACs are obtained from BPS Biosciencies (San Diego, Calif.). […] Fluorescence measurements are obtained approximately once per minute using a multilabel plate reader. Data were analyzed using GraphPad Prism.
Experimental for HDAC2: as §1
Experimental for HDAC4: as §1
Experimental for HDAC5: as §1
Experimental for HDAC7: as §1
Experimental for HDAC9: as §1
Experimental for human PBMCs: Whole blood from three anonymous donors is collected in vacutainer tubes with sodium heparin as an anti-coagulant (Research Blood Components, Brighton, Mass.). A total volume of 30 ml of blood is diluted and layered over Ficoll-Paque Plus (GE Life Sciences) and centrifuged at 400×g for 30 minutes. The peripheral blood mononuclear cell (PBMC) fraction is removed from the interface of plasma and Ficoll and washed once with PBS.
Cells are seeded in 24 well plates at a density of 400,000 cells per well.
After the overnight stimulation the plates are centrifuged at 200×g for 5 minutes. The supernatant is removed and a small aliquot is reserved for determination of TNFα levels by ELISA (R&D Systems, catalog number STA00C). The remainder of the supernatant is frozen at −80° C. and sent to Millipore Bioscience Division (St. Charles, Mo.) for multiplex cytokine analysis.

For the compound `O=C(CCCCCCNC(=O)c1cnc(N(c2ccccc2)c2ccccc2)nc1)NO` [ACY-63], the “Decrease of severity of disease (average)” value in assay [1] came to 67%.
For the compound `Cc1ccccc1N(c1ccccc1)c1ncc(C(=O)NCCCCCCC(=O)NO)cn1` [ACY-216], the IC50 on HDAC4 is greater than 10000 nM; on HDAC9, greater than 10000 nM; on HDAC7, greater than 10000 nM; at HDAC1, 57 nM; at HDAC5, greater than 10000 nM; on HDAC2 it was 131 nM. Moreover, the “Number of LPS induced cytokines decreased (of eight)” value in the assay on human PBMCs is reported as “three of eight”.
In the case of `O=C(CCCCCCNC(=O)c1ccc(C(O)(c2ccccn2)c2ccccn2)cc1)NO` [ACY-251], the IC50 on HDAC4 was greater than 10000 nM; at HDAC9, greater than 10000 nM; at HDAC7, greater than 10000 nM; on HDAC1 it was 45 nM; on HDAC5 it was 5900 nM; at HDAC2, 96 nM.
Turning to `COC(c1ccc(F)cc1)(c1ccc(F)cc1)c1ccc(C(=O)NCCCCCCC(=O)NO)cc1` [ACY-257], the IC50 at HDAC4 is greater than 10000 nM. The half-maximal inhibitory concentration (IC50) at HDAC9 was greater than 10000 nM. The “Decrease of severity of disease (average)” value in [1] came out at 50%. Also, the IC50 at HDAC7 was greater than 10000 nM. Further, in the assay on human PBMCs, the “Effect on production of GM-CSF” value is given as “significantly decreasing”, the “Effect on production of IL-1β” value is recorded as “significantly decreasing”, the “Effect on production of IL-6” value is reported as “significantly decreasing” and the “Effect on production of IL-7” value is “no effect”. In the assay on human PBMCs, the “Effect on production of IL-8” value is recorded as “no effect”, the “Effect on production of IL-10” value was “significantly decreasing”, the “Effect on production of MCP-1” value was “no effect” and the “Effect on production of TNF-α” value is given as “significantly decreasing”. Also, the “Number of LPS induced cytokines decreased (of eight)” value in the assay on human PBMCs is recorded as “five of eight”. The 50% inhibitory concentration (IC50) on HDAC1 amounted to 178 nM. In addition, the IC50 at HDAC5 was determined as 8200 nM. Besides, the IC50 on HDAC2 was 450 nM.
For `O=C(NO)c1cnc(NC2(c3ccccc3)CC2)nc1` [ACY-738], the IC50 at HDAC4 is 1600 nM; on HDAC9 it was 914 nM; on HDAC7, 1600 nM; at HDAC5 it was 882 nM. Further, the figures for the “TNFα protein level in supernatant” value in assay [2] and in assay [2] (listed as ACY-739) were “inhibition” and “decreases”, respectively. The “TNFα mRNA level” value in assay [2] is given as “inhibition”; in [2] (listed as ACY-739), “decreases”.
Regarding `C[C@@H]1NC(=O)[C@H]2CCCN2C(=O)[C@H](CCCCCC(=O)[C@@H]2CO2)NC(=O)[C@@H](C)NC1=O` [HC-toxin], in the assay with IL-1β, the “Level of synthesis or intracellular localization of the precursors of IL-1β” value (shortened to “Level … of IL-1β”) is “do not affect” and the “Secretion of mature IL-1β” value is recorded as “inhibit secretion”.
Turning to `CCN(CC)Cc1ccc2cc(COC(=O)Nc3ccc(C(=O)NO)cc3)ccc2c1` [ITF2357], the HDAC class selectivity entry with Class I HDACs and HDAC6 was “selective for Class I HDACs and HDAC6 but not Class IIa”. In the assay with IL-1β, the “Level … of IL-1β” value is “do not affect” and the “Secretion of mature IL-1β” value is listed as “inhibit secretion”. The “Levels of proinflammatory cytokines” value in assay [3] is “non-specifically reduce”.
As to `O=C(CCCCCCC(=O)Nc1ccccc1)NO` [SAHA, Suberoylanilide hydroxamic acid], the “Number of LPS induced cytokines decreased (of eight)” value in the assay with human PBMCs is “six out of eight”. Moreover, in the assay with IL-1β, the “Level … of IL-1β” value is listed as “do not affect” and the “Secretion of mature IL-1β” value is recorded as “inhibit secretion”. In assay [3], the “Levels of proinflammatory cytokines” value is on record as “non-specifically reduce”.
As to `CC(/C=C/C(=O)NO)=C\[C@@H](C)C(=O)c1ccc(N(C)C)cc1` [Trichostatin A], in the assay with IL-1β, the “Level … of IL-1β” value is reported as “do not affect” and the “Secretion of mature IL-1β” value is given as “inhibit secretion”.
Consider `O=C(CCCCCCC(=O)Nc1ccc([C@H]2O[C@@H](CSc3nc(-c4ccccc4)c(-c4ccccc4)o3)C[C@@H](c3ccc(CO)cc3)O2)cc1)NO` [tubacin], for which, in the assay on IL-1β, the “Level … of IL-1β” value is recorded as “do not affect” and the “Secretion of mature IL-1β” value is on record as “inhibit secretion”.
